Assay results as given in patent publication US20220144841A1, “TRISUBSTITUTED PYRAZOLO [1,5-A] PYRIMIDINE COMPOUNDS AS CDK7 INHIBITORS” (THE TRANSLATIONAL GENOMICS RESEARCH INSTITUTE, priority 2019, published 2022).
Structures can show the parent of a compound that is named as a salt.

What follows are molecules tested against T1, CDK7/CycH/MAT1 (Homo sapiens, UniProt P50613) (assay: Kinase ADP-Glo Assay). Settings: ADP-Glo assay (compounds without *), ATP 1 μM, 60 minutes at room temperature.
T1 construct: purchased ProQinase 0366-0360-4
Type: biochemical
Protocol: Assay Buffer: 50 mM HEPES, 3 mM MgCl2, 3 mM MnCl2, 1 mM DTT, 3 μM Na3VO4, pH 7.5
Substrate RB: CTF Peptide (ProQinase #: 0040-0000-6)
ADP-Glo™ Assay (Promega #: V9101): ATP: 10 mM, ADP-Glo™ Reagent, Kinase Detection Reagent
384-well white assay plates
A ten point serial dilution of compound was prepared at 5× concentration in assay buffer with the final assay concentrations starting at 30 μM, 10 μM, 3 μM, 1 μM . . . 0 μM. Enzyme, substrate, and ATP were used at 40 ng, 200 ng (or 400 ng)^+ and 1 μM, respectively. The assay plate was set up by mixing the components in a total reaction volume of 10 μL per well. The plate was centrifuged gently for 10 seconds and incubated at room temperature (RT) for 60 minutes in the dark. The ADP-Glo Reagent and kinase detection reagent were added and incubated as recommended. The reaction was quantified by measuring luminescence on the Perkin Elmer Envision plate reader. Data was analyzed using Graphpad Prism 7 software. *With CDK2 enzyme, 400 ng of substrate was used.

T1 sequence (P50613 whole entry): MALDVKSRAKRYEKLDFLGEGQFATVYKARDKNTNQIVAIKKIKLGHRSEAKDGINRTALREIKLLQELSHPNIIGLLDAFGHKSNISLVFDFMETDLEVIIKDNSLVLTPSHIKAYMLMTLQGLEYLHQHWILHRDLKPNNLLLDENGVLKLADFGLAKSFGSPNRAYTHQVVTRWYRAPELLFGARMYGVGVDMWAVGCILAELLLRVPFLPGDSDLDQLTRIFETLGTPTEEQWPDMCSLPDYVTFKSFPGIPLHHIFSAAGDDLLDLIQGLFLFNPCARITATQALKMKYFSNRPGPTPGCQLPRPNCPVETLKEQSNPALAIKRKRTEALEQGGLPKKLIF
T1 sequence (P51946 whole entry partner): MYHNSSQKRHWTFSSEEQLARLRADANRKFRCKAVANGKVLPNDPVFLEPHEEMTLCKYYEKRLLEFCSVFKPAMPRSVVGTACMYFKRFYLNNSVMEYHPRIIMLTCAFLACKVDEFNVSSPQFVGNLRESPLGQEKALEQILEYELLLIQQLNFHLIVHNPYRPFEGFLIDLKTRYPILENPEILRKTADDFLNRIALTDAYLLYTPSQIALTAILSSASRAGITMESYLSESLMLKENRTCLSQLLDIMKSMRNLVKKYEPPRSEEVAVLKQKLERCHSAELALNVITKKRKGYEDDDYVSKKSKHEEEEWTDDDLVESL
T1 sequence (P51948 whole entry partner): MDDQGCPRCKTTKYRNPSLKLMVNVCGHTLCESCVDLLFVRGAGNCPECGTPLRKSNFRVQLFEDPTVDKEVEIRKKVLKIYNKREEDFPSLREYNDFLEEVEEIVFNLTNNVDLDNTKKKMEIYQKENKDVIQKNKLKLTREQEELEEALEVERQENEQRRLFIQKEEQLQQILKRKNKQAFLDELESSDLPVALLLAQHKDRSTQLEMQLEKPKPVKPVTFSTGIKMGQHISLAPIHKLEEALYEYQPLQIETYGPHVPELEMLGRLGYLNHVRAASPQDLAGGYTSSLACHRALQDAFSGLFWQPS

Structure (SMILES) | IC50 [nM]
O[C@@H]1CNCC[C@@H]1CNc1cc(Nc2cccc(F)c2)n2ncc(C3CC3)c2n1 [Compound I-12, (3S,4R)-4-((3-cyclopropyl-7-((3-fluorophenyl)amino)pyrazolo [1,5-a]pyrimidin-5-yl)aminomethyl)piperidin-3-ol] | 100 to 1000
Fc1cccc(Nc2cc(NC[C@H]3CCCNC3)nc3c(C4CC4)cnn23)c1 [Compound I-13] | > 1000
O[C@H]1CNCC[C@@H]1CNc1cc(Nc2cccc(F)c2)n2ncc(C3CC3)c2n1 [Compound I-45, (3R,4R)-4-((3-cyclopropyl-7-((3-fluorophenyl)amino)pyrazolo [1,5-a]pyrimidin-5-yl)aminomethyl)piperidin-3-ol] | < 100
FC(F)(F)Cc1cccc(Nc2cc(N[C@H]3CCCNC3)nc3c(C4CC4)cnn23)c1 [Compound I-10] | 100 to 1000
N#Cc1cnn2c(NCc3cccc(F)c3)cc(N[C@H]3CCCNC3)nc12 [Compound I-29, (S)-7-((3-fluorobenzyl)amino)-5-((piperidin-3-yl)amino)pyrazolo[1,5-a]pyrimidine-3-carbonitrile] | 100 to 1000
O[C@@H]1CNCC[C@H]1CNc1cc(Nc2cc(F)cc(F)c2)n2ncc(C3CC3)c2n1 [Compound I-47, (3S,4S)-4-((3-cyclopropyl-7-((3,5-difluorophenyl)amino)pyrazolo[1,5-a]pyrimidin-5-yl)aminomethyl)piperidin-3-ol] | 100 to 1000
N#Cc1cccc(Nc2cc(NC[C@@H]3CCNC[C@H]3O)nc3c(C4CC4)cnn23)c1 [Compound I-15, (3S,4S)-3-((3-cyclopropyl-5-(((3-hydroxy)piperidin-4-yl)methylamino)pyrazolo[1,5-a]pyrimidin-7-yl)amino)benzonitrile] | 100 to 1000
N[C@H]1CC[C@H](Nc2cc(Nc3cccc(F)c3)n3ncc(C4CC4)c3n2)CC1 [Compound I-6, Trans-N^5-(4-aminocyclohexyl)-3-cyclopropyl-N^7-(3-fluorophenyl)pyrazolo[1,5-a]pyrimidine-5,7-diamine] | 100 to 1000
O[C@H]1CNCC[C@@H]1CNc1cc(Nc2cccc(F)c2)n2ncc(C3CCC3)c2n1 [Compound I-50] | < 100
CS(=O)(=O)c1cccc(Nc2cc(NC[C@H]3CCNC[C@@H]3O)nc3c(C4CC4)cnn23)c1 [Compound I-51, (3R,4R)-((3-cyclopropyl-7-((3-methylsulfonylphenyl)amino)pyrazolo[1,5-a]pyrimidin-5-yl)aminomethyl)piperidin-3-ol] | < 100
Cc1cccc(CNc2cc(N[C@H]3CCCNC3)nc3c(C#N)cnn23)c1 [Compound I-30, (S)-7-((3-methylbenzyl)amino)-5-((piperidin-3-yl)amino)pyrazolo[1,5-a]pyrimidine-3-carbonitrile] | 100 to 1000
O[C@H]1CNCC[C@@H]1CNc1cc(Nc2cc(F)cc(F)c2)n2ncc(C3CC3)c2n1 [Compound I-46, (3R,4R)-4-((3-cyclopropyl-7-((3,5-difluorophenyl)amino)pyrazolo[1,5-a]pyrimidin-5-yl)aminomethyl)piperidin-3-ol] | 100 to 1000
FC(F)(F)c1cccc(Nc2cc(N[C@H]3CCCNC3)nc3c(C4CC4)cnn23)c1 [Compound I-8] | < 100
Fc1cccc(Nc2cc(OC[C@H]3CCCNC3)nc3c(C4CC4)cnn23)c1 [Compound I-14] | 100 to 1000
N#Cc1cccc(Nc2cc(N[C@H]3CCCNC3)nc3c(C4CC4)cnn23)c1 [Compound I-9, (S)-3-((3-cyclopropyl-5-((piperidin-3-yl)amino)pyrazolo[1,5-a]pyrimidin-7-yl)amino)benzonitrile] | < 100
N#Cc1cccc(Nc2cc(NC[C@H]3CCNC[C@@H]3O)nc3c(C4CC4)cnn23)c1 [Compound I-48, (3R,4R)-3-(((3-cyclopropyl-5-(3-hydroxypiperidin-4-yl)methylamino)pyrazolo[1,5-a]pyrimidin-7-yl)amino)benzonitrile] | < 100
N#Cc1cc(F)cc(Nc2cc(NC[C@@H]3CCNC[C@H]3O)nc3c(C4CC4)cnn23)c1 [Compound I-16, (3S,4S)-3-((3-cyclopropyl-5-(((3-hydroxy)piperidin-4-yl)methylamino)pyrazolo[1,5-a]pyrimidin-7-yl)amino)-5-fluorobenzonitrile trifluoroacetate salt] | > 1000
Fc1cccc(Nc2cc(O[C@H]3CCCNC3)nc3c(C4CC4)cnn23)c1 [Compound I-4, (S)-3-cyclopropyl-N-(3-fluorophenyl)-5-((piperidin-3-yl)oxy)pyrazolo[1,5-a]pyrimidin-7-amine] | < 100
Clc1cccc(Nc2cc(N[C@H]3CCCNC3)nc3c(C4CC4)cnn23)c1 [Compound I-18] | < 100
O[C@@H]1CNCC[C@H]1CNc1cc(Nc2cccc(F)c2)n2ncc(C3CC3)c2n1 [Compound I-11, (3S,4S)-4-(((3-cyclopropyl-7-((3-fluorophenyl)amino)pyrazolo [1,5-a]pyrimidin-5-yl)amino)methyl)piperidin-3-ol] | < 100

The remaining lines, values ahead:

IC50 [nM] | Structure (SMILES)
< 100 | O[C@@H]1CNCC[C@H]1COc1cc(Nc2cccc(F)c2)n2ncc(C3CC3)c2n1 (relative stereo) [Compound I-53, trans-4-((3-cyclopropyl-7-((3-fluorophenyl)amino)pyrazolo [1,5-a]pyrimidin-5-yl)oxymethyl)piperidin-3-ol]
< 100 | Cc1cc(C#N)cc(Nc2cc(N[C@H]3CCCNC3)nc3c(C4CCC4)cnn23)c1 [Compound I-68, (S)-3-((3-cyclobutyl-5-((piperidin-3-yl)amino)pyrazolo[1,5-a]pyrimidin-7-yl)amino)-5-methylbenzonitrile]
< 100 | Cc1cc(C#N)cc(Nc2cc(O[C@H]3CCCNC3)nc3c(C4CCC4)cnn23)c1 [Compound I-70, (S)-3-((3-cyclobutyl-5-((piperidin-3-yl)oxy)pyrazolo[1,5-a]pyrimidin-7-yl)amino)-5-methylbenzonitrile]
< 100 | Cc1cc(C#N)cc(Nc2cc(O[C@H]3CCCNC3)nc3c(C4CC4)cnn23)c1 [Compound I-69, (S)-3-((3-cyclopropyl-5-((piperidin-3-yl)oxy)pyrazolo [1,5-a]pyrimidin-7-yl)amino)-5-methylbenzonitrile]
100 to 1000 | Cc1cc(C#N)cc(Nc2cc(N[C@H]3CCCNC3)nc3c(C4CC4)cnn23)c1 [Compound I-67, (S)-3-((3-cyclopropyl-5-((piperidin-3-yl)amino)pyrazolo[1,5-a]pyrimidin-7-yl)amino)-5-methylbenzonitrile]
100 to 1000 | Cc1cc(Nc2cc(O[C@H]3CCCNC3)nc3c(C4CC4)cnn23)cc(C(F)(F)F)c1 [Compound I-61, (S)-3-cyclopropyl-N-(5-methyl-3-trifluoromethylphenyl)-5-((piperidin-3-yl)oxy)pyrazolo[1,5-a]pyrimidin-7-amine]
> 1000 | N#Cc1cc(F)cc(Nc2cc(OC[C@H]3CCCNC3)nc3c(C4CCC4)cnn23)c1 [Compound I-60, (S)-3-((3-cyclobutyl-5-((piperidin-3-yl)methoxy)pyrazolo[1,5-a]pyrimidin-7-yl)amino)-5-fluorobenzonitrile]
< 100 | Cc1cc(Nc2cc(N[C@H]3CCCNC3)nc3c(C4CCC4)cnn23)cc(C(F)(F)F)c1 [Compound I-63, (S)-3-cyclobutyl-N^7-(5-methyl-3-trifluoromethylphenyl)-N^5-(piperidin-3-yl)pyrazolo[1,5-a]pyrimidine-5,7-diamine]
< 100 | Cc1cc(F)cc(Nc2cc(NC[C@H]3CCNC[C@@H]3O)nc3c(C4CCC4)cnn23)c1 [Compound I-52, (3R,4R)-((3-cyclobutyl-7-((3-fluoro-5-methylphenyl)amino)pyrazolo [1,5-a]pyrimidin-5-yl)aminomethyl)piperidin-3-ol]
< 100 | Cc1cc(F)cc(Nc2cc(O[C@H]3CCCNC3)nc3c(C4CCC4)cnn23)c1 [Compound I-58, (S)-3-cyclobutyl-N-(3-fluoro-5-methylphenyl)-5-((piperidin-3-yl)oxy)pyrazolo[1,5-a]pyrimidin-7-amine]
< 100 | Fc1cc(Nc2cc(O[C@H]3CCCNC3)nc3c(C4CCC4)cnn23)cc(C(F)(F)F)c1 [Compound I-65, (S)-3-cyclobutyl-N-(5-fluoro-3-trifluoromethylphenyl)-5-((piperidin-3-yl)oxy)pyrazolo[1,5-a]pyrimidin-7-amine]
< 100 | Cc1cc(C#N)cc(Nc2cc(NC[C@H]3CCNC[C@@H]3O)nc3c(C4CC4)cnn23)c1 [Compound I-54, (3R,4R)-3-((3-cyclopropyl-5-((3-hydroxypiperidin-4-yl)methylamino)pyrazolo[1,5-a]pyrimidin-7-yl)amino)-5-methylbenzonitrile]
< 100 | N#Cc1cc(F)cc(Nc2cc(NC[C@H]3CCNC[C@@H]3O)nc3c(C4CCC4)cnn23)c1 [Compound I-55, (3R,4R)-3-((3-cyclobutyl-5-((3-hydroxypiperidin-4-yl)methylamino)pyrazolo[1,5-a]pyrimidin-7-yl)amino)-5-fluorobenzonitrile]
100 to 1000 | Cc1cc(Nc2cc(N[C@H]3CCCNC3)nc3c(C4CC4)cnn23)cc(C(F)(F)F)c1 [Compound I-62, (S)-3-cyclopropyl-N^7-(5-methyl-3-trifluoromethylphenyl)-N^5-(piperidin-3-yl)pyrazolo[1,5-a]pyrimidine-5,7-diamine]
100 to 1000 | Fc1cc(Nc2cc(O[C@H]3CCCNC3)nc3c(C4CC4)cnn23)cc(C(F)(F)F)c1 [Compound I-64, (S)-3-cyclopropyl-N-(5-fluoro-3-trifluoromethylphenyl)-5-((piperidin-3-yl)oxy)pyrazolo[1,5-a]pyrimidin-7-amine]
